Assay results taken from patent publication US11892401B2, “Boronic acid appended naphthyl-pyridinium fluorescent saccharide sensors for early detection of gastrointestinal diseases” (The Board of Trustees of the Leland Stanford Junior …, priority 2018, dated 2024).
Read-outs that look alike come from different tables or passages of the source.

What was measured:
[1] = Fluorescence emission of receptor compounds with increasing lactulose; conditions: phosphate buffer pH 7.4; for emission maxima: receptor 500 μM; for fluorescence intensity change on initial introduction of lactulose: lactulose 0.5 mM
Method: Fluorescence Measurements of exemplary boronic acid receptor compounds: Stock solutions of each boronic acid receptor compound (1-4) were initially prepared in DMS (1 mg/mL) and then diluted to desired initial 1 mM concentration before adding to the wells. Each lactulose concentration points were prepared in 0.1 M sodium phosphate buffer as 2-fold of the desired final concentration in each well. Each well received 20 μL of each receptor compound and sugar concentration (each data point recorded in triplicates) and the fluorescence measurements were conducted in a 96-well plate (Corning #3694) using a Tecan infinite M1000 instrument a plate reader (gain 100, flashes 30, z-position 1.8 cm) Plates were shaken for 30 seconds (2 mm orbital amplitude) prior to reading.
With reference to FIG. 4, panels A to D, the effect of lactulose on the fluorescent properties of each receptor compound (1-4) was examined in phosphate buffer pH 7.4. Receptor compounds (1) and (2) observed similar emission profiles with emission maxima at 504 and 490 nm, meanwhile the emission maxima for (3) and (4) was 50 nm less which peaked at 440 nm. […] These types of fluorescent changes have been previously observed by Norrild where a pyridinium moiety is directly conjugated to an anthracene core (Eggert, H.; Frederiksen, J.; Morin, C.; Norrild, J. C., Journal of Organic Chemistry 1999, 64 (11), 3846-3852). Without being bound to any particular theory, it was hypothesized that the pyridinium unit in the subject receptor compounds may act as an electron sink for the singlet electron diminishing the fluorescence intensity. Upon boronic acid-sugar recognition and subsequently conversion of the hybridization of the boron atom from sp^2 to anionic sp^3 generating a zwitterion induces an internal charge transfer (ICT)-like mechanism increasing the fluorescence intensity.

[2] = Absorption measurements with increasing lactulose; format: physicochemical; conditions: 0.1 M sodium phosphate buffer pH 7.4; 100 μM (1, 2), 50 μM (3, 4)
Method: Absorption measurements of exemplary boronic acid receptor compounds: All absorption measurements were carried out using an Agilent Technologies Cary 60 Vis instrument in a quartz cuvette (1 cm pathlength). Stock solutions (1 mg/mL) of each compound was initially prepared in DMSO and then diluted to the desired concentration in 0.1 M sodium phosphate buffer pH 7.4 which gave minimal DMSO amount of at least 15%. Concentrations for each boronic acid receptor in cuvette are as follows; (1)=100 μM, (2)=100 μM, (3)=50 μM, and (4)=50 µM. Measurements were done in situ by taking the absorbance of each receptor compound in phosphate buffer pH 7.4, then aliquots of buffered 1 M lactulose (0.5-7 μL) was added, shaken for 30 seconds, and the new absorbance was recorded. With reference to FIG. 3, panels A to D, change of absorbance for each receptor compound was monitored as a function of increasing lactulose. […] Each compound provided absorbance maxima between 300-350 nm and with isosbestic points between 330-350 nm for all four receptors. Additionally, the compounds provided molar extinction coefficients of 1.17×10^4 (100 μM), 1.10×10^4 (100 μM), 2.77×10^4 (50 μM), and 5.01×10^4 (50 μM) M^−1 cm^−1 for 1-4 respectively. Without being bound to any particular theory, these absorption changes upon sugar binding at physiological pH for compounds 1-4 is indicative of a possible charge transfer process.

[3] = Fluorescence recovery of HPTS-receptor probes with 20 sugars; conditions: 4 μM HPTS, optimal Q:D ratio, pH 7.4, 20 sugars
Method: Fluorescence recovery of each anionic reporter dyes: Fluorescence recovery measurements for sugar binding studies were conducted by preparing 96-well plates with the addition of 20 μL of the boronic acid receptor-fluorophore (HPTS or TSPP) probe solution as 2-fold concentrate (for example, 160 μM for (1) & 8 μM HPTS or 800 μM for (1) & 8 μM for TSPP) in 0.1 M sodium phosphate buffer pH 7.4. At the time of running the assay, each well received 20 μL of sample in triplicate. Blank wells were given 40 μL buffer with neither HPTS nor boronic acid receptor compound. Baseline fluorescence wells contained 20 μL of buffer and 20 μL of probe solution. Fluorescence recovery of HPTS was measured on the plate reader. After blank subtraction, fluorescence intensity relative to initial quenched HPTS (F/Fo) for each sample was calculated. Under these conditions, Fo is a non-zero value after background subtraction with about 20% of maximum fluorescence intensity. […]
Each exemplary boronic acid appended naphthyl-pyridinium quencher-dye combination provided unique fluorescent recovery characteristics across all 20 sugars and sugar derivatives analyzed. […]

[4] = Stern-Volmer quenching of TSPP anionic reporter dye; format: binding; conditions: 4 μM TSPP, 0.1 M sodium phosphate buffer pH 7.4, sphere of action quenching model
Method: (§1) Stern-Volmer quenching of HPTS and TSPP anionic reporter dyes: Stock solutions of exemplary boronic acid compounds (1, 3, and 4) were initially prepared in DMS (1 mg/mL) and then diluted in 0.1 M sodium phosphate buffer pH 7.4 to obtain the desired initial 2-fold concentration. Fluorescence measurements were conducted in a 96-well plate (Corning #3694) and to each well were added 20 μL of each exemplary compound and 8 μM of HPTS or TSPP in triplicate. Initial fluorescence wells contained 20 μL of each reporter dye and 20 μL of buffer. Blank wells received 40 μL of buffer only. Measurements were performed using a Tecan infinite M1000 instrument a plate reader (gain 100, flashes 30, z-position 1.8 cm) Plates were shaken for 30 seconds (2 mm orbital amplitude) prior to reading. After blank subtraction, fluorescence intensity relative to initial total fluorescence of HPTS or TSPP (Fo/F) for each sample was calculated.
(§2) Given the cationic character of the subject receptor compounds, their ability to form a non-fluorescent ground state complex with anionic reporter dyes, such as HPTS and TSPP was investigated. The fluorescence quenching of each dye can be quantitatively monitored by Stern-Volmer analysis (Albrecht, C., Anal. Bioanal. Chem. 2008, 390 (5), 1223-1224). Two types of quenching can exist, static quenching, due to complex formation, and dynamic quenching, due to collisional encounters between the dye and quencher. Based on previous work with bis-boronic acid appended viologens (BBV) and their ability to quench HPTS (Cordes, D. B.; Gamsey, S.; Sharrett, Z.; Miller, A.; Thoniyot, P.; Wessling, R. A.; Singaram, B., Langmuir 2005, 21 (14), 6540-6547), a similar quenching mechanism was envisaged for each anionic reporter dye, through static quenching. The effects of adjusting the quencher to dye ratio for HPTS and TSPP with each of compounds 1, 3, and 4 while monitoring the decrease of fluorescence for each dye are shown in FIG. 5, panel A (HPTS) and FIG. 5, panel B (TSPP).
(§3) With each of compounds 1, 3 and 4 only having two cationic groups, it was anticipated anticipated that higher (>400 μM) amounts of each quencher would be required to achieve at least 80% of quenched fluorescence. […] Using the fluorescence data, the quenching efficiency can be determined using the available Stern-Volmer fitting models. The best fit to the Stern-Volmer plots for the exemplary compounds was obtained using the sphere of action quenching model (Eq. 2) (Frank, J. M.; Vavilov, S. I., Z. Phys. 1931, 69, 100-10).
(§4) [formula] Where V is the dynamic quenching constant, Ks is the static quenching constant, [Q] is the concentration of the quencher, and […] is derived from the Poisson distribution. There was higher contribution from the static quenching given the higher static quenching constants compared to the dynamic constants (Table 1).

[5] = Stern-Volmer quenching of HPTS anionic reporter dye; format: binding; conditions: 4 μM HPTS, 0.1 M sodium phosphate buffer pH 7.4, sphere of action quenching model
Method: as §1, §2, §3, §4

[6] = pH profile / pKa by fluorescence spectroscopy; format: physicochemical; conditions: receptor 500 μM (2) or 250 μM (3, 4), fluorescence titration pH 3-10
Method: Titration curves with pH were determined using the following buffer solutions, pH 3-4 acetate buffer; pH 5-8.5 phosphate buffer; and pH 9-10 carbonate buffer. Fluorescence intensity was monitored in the absence or presence of 30 mM lactulose for exemplary receptor compounds, e.g., 2, 500 μM; 3, 250 μM; and (4, 205 µM in the indicated buffer conditions. Stock solutions of each boronic acid receptor compound (2, 3, and 4) were initially prepared in DMS (1 mg/mL) and then diluted in appropriate buffer conditions to obtain the desired initial 2-fold concentration. Fluorescence measurements were conducted in a 96-well plate (Corning #3694) and to each well 30 μL of each receptor compound and buffer media with or without lactulose were added in triplicate. Blank wells received 60 μL of buffer only. Measurements were performed using a Tecan Infinite M1000 instrument, a plate reader (gain 100, flashes 30, z-position 1.8 cm) Plates were shaken for 30 seconds (2 mm orbital amplitude) prior to reading. After blank subtraction, fluorescence intensity relative to initial total fluorescence (at pH 3).
Each pH-profile was fitted with equation S1, where y=normalized intensity, ymax=maximum normalized intensity, ymin=minimum normalized intensity, x=pH value, k=acid dissociation constant and pka values were obtained from this constant (pka=−log k).
Titration curves fitted to equation S1.

[7] = 30 mM lactulose, read-out: pka-with 30 mM lactulose
[8] = aqueous buffer solutions in a 96-well plate, no lactulose, read-out: pKa-absence of lactulose

Row | Structure (SMILES) | emission maxima [1] [nm] | molar extinction coefficient [2] [M⁻¹ cm⁻¹] | change in fluorescence recovery, HPTS combination [3] [fold] | TSPP Ks (static quenching constant) [4] | TSPP V (dynamic quenching constant) [4] [M⁻¹] | HPTS Ks (static quenching constant) [5] | HPTS V (dynamic quenching constant) [5] [M⁻¹] | pKa [6, 7] | pKa [6, 8] | fluorescence intensity change on initial introduction of lactulose [1]
1 | OB(O)c1cc(C[n+]2ccc(-c3ccc4ccccc4c3)cc2)cc(C[n+]2ccc(-c3ccc4ccccc4c3)cc2)c1 [Compound 1] | 504 | 11700 | ≥ 1.5 | 5.24 ± 0.3 × 10^4 M^−1 | 112 ± 46 | 1.01 ± 0.5 × 10^5 M^−1 | 63 ± 15 | – | – | –
2 | OB(O)c1ccccc1C[n+]1ccc(-c2ccc3ccccc3c2)cc1.[Br-] [Compound 2, 1-(2-boronobenzyl)-4-(naphthalen-2-yl) pyridinium bromide] | 490 | 11000 | – | – | – | – | – | 5.5 ± 0.06 | 7.7 ± 0.08 | –
3 | OB(O)c1ccccc1C[n+]1ccc(-c2ccc3cc(-c4cc[n+](Cc5ccccc5B(O)O)cc4)ccc3c2)cc1 [Compound 3] | 440 | 27700 | – | 5.01 ± 0.7 × 10^4 M^−1 | 68 ± 13 | 9.29 ± 0.4 × 10^4 M^−1 | 109 ± 18 | 5.8 ± 0.1 | 7.8 ± 0.03 | drastic intensity change
4 | OB(O)c1ccccc1C[n+]1ccc(-c2ccc3ccc(-c4cc[n+](Cc5ccccc5B(O)O)cc4)cc3c2)cc1 [Compound 4] | 440 | 50100 | – | 1.45 ± 0.1 × 10^4 M^−1 | 80 ± 10 | 1.00 ± 0.9 × 10^5 M^−1 | 100 ± 14 | 5.7 ± 0.05 | 8.2 ± 0.02 | drastic intensity change
